Tests used:
Assay in all cases: Bacterial panel testing, MIC by broth microdilution
Type in all cases: cell-based
Settings in all cases: 20-24 hours growth
[1] = tested on: Enterococcus faecium
Outline: (§1)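 MIC via two-fold broth microdilution of compound (diluted to 10 μg/ml in DMSO) in McFarland-standardized, diluted inoculum in Mueller-Hinton or Brain Heart infusion media. Plates sealed (E. faecium with air-pore tape), incubated 20-24 h; clear wells read. Rifampicin included as control.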

[2] = tested on: Salmonella choleraesuis
Outline: as §1

[3] = tested on: Pseudomonas aeruginosa
Outline: as §1

[4] = tested on: Staphylococcus aureus
Outline: as §1

[5] = tested on: Bacillus atrophaeus
Outline: as §1

[6] = tested on: Eschericia coli
Outline: as §1

| SMILES | MIC EF [1] | MIC SC [2] | MIC PA [3] | MIC SA [4] | MIC BA [5] | MIC EC [6] |
| --- | --- | --- | --- | --- | --- | --- |
| CN(C)C[C@H]1O[C@@H]2O[C@H]3[C@H](O)[C@@H](O)[C@@H](O[C@H]4[C@H](O)[C@@H](O)[C@@H](O[C@H]5[C@H](O)[C@@H](O)[C@@H](O[C@H]6[C@H](O)[C@@H](O)[C@@H](O[C@H]7[C@H](O)[C@@H](O)[C@@H](O[C@H]8[C@H](O)[C@@H](O)[C@@H](O[C@H]1[C@H](O)[C@H]2O)O[C@@H]8CN(C)C)O[C@@H]7CN(C)C)O[C@@H]6CN(C)C)O[C@@H]5CN(C)C)O[C@@H]4CN(C)C)O[C@@H]3CN(C)C | >200 µg/mL | >200 µg/mL | >200 µg/mL | >200 µg/mL | <0.2 µg/mL | >200 µg/mL |
| CC(C)[C@H](N)C(=O)NC[C@H]1O[C@@H]2O[C@H]3[C@H](O)[C@@H](O)[C@@H](O[C@H]4[C@H](O)[C@@H](O)[C@@H](O[C@H]5[C@H](O)[C@@H](O)[C@@H](O[C@H]6[C@H](O)[C@@H](O)[C@@H](O[C@H]7[C@H](O)[C@@H](O)[C@@H](O[C@H]8[C@H](O)[C@@H](O)[C@@H](O[C@H]1[C@H](O)[C@H]2O)O[C@@H]8CNC(=O)[C@@H](N)C(C)C)O[C@@H]7CNC(=O)[C@@H](N)C(C)C)O[C@@H]6CNC(=O)[C@@H](N)C(C)C)O[C@@H]5CNC(=O)[C@@H](N)C(C)C)O[C@@H]4CNC(=O)[C@@H](N)C(C)C)O[C@@H]3CNC(=O)[C@@H](N)C(C)C.Cl.Cl.Cl.Cl.Cl.Cl.Cl | >200 µg/mL | >200 µg/mL | >200 µg/mL | >200 µg/mL | >200 µg/mL | >200 µg/mL |
| Cl.Cl.Cl.Cl.Cl.Cl.Cl.N[C@@H](CC(=O)O)C(=O)NC[C@H]1O[C@@H]2O[C@H]3[C@H](O)[C@@H](O)[C@@H](O[C@H]4[C@H](O)[C@@H](O)[C@@H](O[C@H]5[C@H](O)[C@@H](O)[C@@H](O[C@H]6[C@H](O)[C@@H](O)[C@@H](O[C@H]7[C@H](O)[C@@H](O)[C@@H](O[C@H]8[C@H](O)[C@@H](O)[C@@H](O[C@H]1[C@H](O)[C@H]2O)O[C@@H]8CNC(=O)[C@@H](N)CC(=O)O)O[C@@H]7CNC(=O)[C@@H](N)CC(=O)O)O[C@@H]6CNC(=O)[C@@H](N)CC(=O)O)O[C@@H]5CNC(=O)[C@@H](N)CC(=O)O)O[C@@H]4CNC(=O)[C@@H](N)CC(=O)O)O[C@@H]3CNC(=O)[C@@H](N)CC(=O)O | >200 µg/mL | >200 µg/mL | >200 µg/mL | >200 µg/mL | >200 µg/mL | >200 µg/mL |
| Cl.Cl.Cl.Cl.Cl.Cl.Cl.NCCCC(=O)NC[C@H]1O[C@@H]2O[C@H]3[C@H](O)[C@@H](O)[C@@H](O[C@H]4[C@H](O)[C@@H](O)[C@@H](O[C@H]5[C@H](O)[C@@H](O)[C@@H](O[C@H]6[C@H](O)[C@@H](O)[C@@H](O[C@H]7[C@H](O)[C@@H](O)[C@@H](O[C@H]8[C@H](O)[C@@H](O)[C@@H](O[C@H]1[C@H](O)[C@H]2O)O[C@@H]8CNC(=O)CCCN)O[C@@H]7CNC(=O)CCCN)O[C@@H]6CNC(=O)CCCN)O[C@@H]5CNC(=O)CCCN)O[C@@H]4CNC(=O)CCCN)O[C@@H]3CNC(=O)CCCN | >200 µg/mL | >200 µg/mL | >200 µg/mL | >200 µg/mL | >200 µg/mL | >200 µg/mL |
| Cl.Cl.Cl.Cl.Cl.Cl.Cl.N[C@@H](Cc1ccc(OCc2ccccc2)cc1)C(=O)NC[C@H]1O[C@@H]2O[C@H]3[C@H](O)[C@@H](O)[C@@H](O[C@H]4[C@H](O)[C@@H](O)[C@@H](O[C@H]5[C@H](O)[C@@H](O)[C@@H](O[C@H]6[C@H](O)[C@@H](O)[C@@H](O[C@H]7[C@H](O)[C@@H](O)[C@@H](O[C@H]8[C@H](O)[C@@H](O)[C@@H](O[C@H]1[C@H](O)[C@H]2O)O[C@@H]8CNC(=O)[C@@H](N)Cc1ccc(OCc2ccccc2)cc1)O[C@@H]7CNC(=O)[C@@H](N)Cc1ccc(OCc2ccccc2)cc1)O[C@@H]6CNC(=O)[C@@H](N)Cc1ccc(OCc2ccccc2)cc1)O[C@@H]5CNC(=O)[C@@H](N)Cc1ccc(OCc2ccccc2)cc1)O[C@@H]4CNC(=O)[C@@H](N)Cc1ccc(OCc2ccccc2)cc1)O[C@@H]3CNC(=O)[C@@H](N)Cc1ccc(OCc2ccccc2)cc1 | >200 µg/mL | >200 µg/mL | >200 µg/mL | >200 µg/mL | >200 µg/mL | >200 µg/mL |
| O=C(O)COC[C@H]1O[C@@H]2O[C@H]3[C@H](O)[C@@H](O)[C@@H](O[C@H]4[C@H](O)[C@@H](O)[C@@H](O[C@H]5[C@H](O)[C@@H](O)[C@@H](O[C@H]6[C@H](O)[C@@H](O)[C@@H](O[C@H]7[C@H](O)[C@@H](O)[C@@H](O[C@H]8[C@H](O)[C@@H](O)[C@@H](O[C@H]1[C@H](O)[C@H]2O)O[C@@H]8COCC(=O)O)O[C@@H]7COCC(=O)O)O[C@@H]6COCC(=O)O)O[C@@H]5COCC(=O)O)O[C@@H]4COCC(=O)O)O[C@@H]3COCC(=O)O | >200 µg/mL | >200 µg/mL | >200 µg/mL | >200 µg/mL | >200 µg/mL | >200 µg/mL |
| Cc1c(NC[C@H]2O[C@@H]3O[C@H]4[C@H](O)[C@@H](O)[C@@H](O[C@H]5[C@H](O)[C@@H](O)[C@@H](O[C@H]6[C@H](O)[C@@H](O)[C@@H](O[C@H]7[C@H](O)[C@@H](O)[C@@H](O[C@H]8[C@H](O)[C@@H](O)[C@@H](O[C@H]9[C@H](O)[C@@H](O)[C@@H](O[C@H]2[C@H](O)[C@H]3O)O[C@@H]9CNc2c(C)n(C)n(-c3ccccc3)c2=O)O[C@@H]8CNc2c(C)n(C)n(-c3ccccc3)c2=O)O[C@@H]7CNc2c(C)n(C)n(-c3ccccc3)c2=O)O[C@@H]6CNc2c(C)n(C)n(-c3ccccc3)c2=O)O[C@@H]5CNc2c(C)n(C)n(-c3ccccc3)c2=O)O[C@@H]4CNc2c(C)n(C)n(-c3ccccc3)c2=O)c(=O)n(-c2ccccc2)n1C | >200 µg/mL | >200 µg/mL | >200 µg/mL | >200 µg/mL | >200 µg/mL | >200 µg/mL |
| O=C(C1CCCO1)N1CCN(CC2OC3OC4C(CN5CCN(C(=O)C6CCCO6)CC5)OC(OC5C(CN6CCN(C(=O)C7CCCO7)CC6)OC(OC6C(CN7CCN(C(=O)C8CCCO8)CC7)OC(OC7C(CN8CCN(C(=O)C9CCCO9)CC8)OC(OC8C(CN9CCN(C(=O)C%10CCCO%10)CC9)OC(OC9C(CN%10CCN(C(=O)C%11CCCO%11)CC%10)OC(OC2C(O)C3O)C(O)C9O)C(O)C8O)C(O)C7O)C(O)C6O)C(O)C5O)C(O)C4O)CC1 (stereo not drawn) | >200 µg/mL | >200 µg/mL | >200 µg/mL | >200 µg/mL | >200 µg/mL | >200 µg/mL |
| OC1C2OC(CNc3ccccc3)C(OC3OC(CNc4ccccc4)C(OC4OC(CNc5ccccc5)C(OC5OC(CNc6ccccc6)C(OC6OC(CNc7ccccc7)C(OC7OC(CNc8ccccc8)C(OC8OC(CNc9ccccc9)C(O2)C(O)C8O)C(O)C7O)C(O)C6O)C(O)C5O)C(O)C4O)C(O)C3O)C1O (stereo not drawn) | >200 µg/mL | >200 µg/mL | >200 µg/mL | >200 µg/mL | >200 µg/mL | >200 µg/mL |
| CCCCCCCCCCCC[N+]12CC[N+](CC(=O)NCC3OC4OC5C(CNC(=O)C[N+]67CC[N+](CCCCCCCCCCCC)(CC6)CC7)OC(OC6C(CNC(=O)C[N+]78CC[N+](CCCCCCCCCCCC)(CC7)CC8)OC(OC7C(CNC(=O)C[N+]89CC[N+](CCCCCCCCCCCC)(CC8)CC9)OC(OC8C(CNC(=O)C[N+]9%10CC[N+](CCCCCCCCCCCC)(CC9)CC%10)OC(OC9C(CNC(=O)C[N+]%10%11CC[N+](CCCCCCCCCCCC)(CC%10)CC%11)OC(OC%10C(CNC(=O)C[N+]%11%12CC[N+](CCCCCCCCCCCC)(CC%11)CC%12)OC(OC3C(O)C4O)C(O)C%10O)C(O)C9O)C(O)C8O)C(O)C7O)C(O)C6O)C(O)C5O)(CC1)CC2 (stereo not drawn) | >200 µg/mL | >200 µg/mL | >200 µg/mL | >200 µg/mL | >200 µg/mL | >200 µg/mL |
| OC1C2OC(CN3CCN(c4ccccn4)CC3)C(OC3OC(CN4CCN(c5ccccn5)CC4)C(OC4OC(CN5CCN(c6ccccn6)CC5)C(OC5OC(CN6CCN(c7ccccn7)CC6)C(OC6OC(CN7CCN(c8ccccn8)CC7)C(OC7OC(CN8CCN(c9ccccn9)CC8)C(OC8OC(CN9CCN(c%10ccccn%10)CC9)C(O2)C(O)C8O)C(O)C7O)C(O)C6O)C(O)C5O)C(O)C4O)C(O)C3O)C1O (stereo not drawn) | >200 µg/mL | >200 µg/mL | >200 µg/mL | >200 µg/mL | >200 µg/mL | >200 µg/mL |
| Cl.Cl.Cl.Cl.Cl.Cl.NCCCSCC1OC2OC3C(CSCCCN)OC(OC4C(CSCCCN)OC(OC5C(CSCCCN)OC(OC6C(CSCCCN)OC(OC7C(CSCCCN)OC(OC1C(O)C2O)C(O)C7O)C(O)C6O)C(O)C5O)C(O)C4O)C(O)C3O (stereo not drawn) | >200 µg/mL | >200 µg/mL | >200 µg/mL | >200 µg/mL | >200 µg/mL | >200 µg/mL |
| COCCNCC1OC2OC3C(CNCCOC)OC(OC4C(CNCCOC)OC(OC5C(CNCCOC)OC(OC6C(CNCCOC)OC(OC7C(CNCCOC)OC(OC8C(CNCCOC)OC(OC1C(O)C2O)C(O)C8O)C(O)C7O)C(O)C6O)C(O)C5O)C(O)C4O)C(O)C3O (stereo not drawn) | >200 µg/mL | >200 µg/mL | >200 µg/mL | >200 µg/mL | >200 µg/mL | >200 µg/mL |
| CC(=O)NCC1OC2OC3C(CNC(C)=O)OC(OC4C(CNC(C)=O)OC(OC5C(CNC(C)=O)OC(OC6C(CNC(C)=O)OC(OC7C(CNC(C)=O)OC(OC8C(CNC(C)=O)OC(OC1C(O)C2O)C(O)C8O)C(O)C7O)C(O)C6O)C(O)C5O)C(O)C4O)C(O)C3O (stereo not drawn) | >200 µg/mL | >200 µg/mL | >200 µg/mL | >200 µg/mL | >200 µg/mL | >200 µg/mL |

From patent US20110071108A1, “Beta-Cyclodextrin Derivatives as Antibacterial Agents” (Pinnacle Pharmaceuticals, Inc., priority 2005, published 2011)
